Results as given in publication PMC8401404 (Molecules, 2021).
Structures can show the parent of a compound that is named as a salt.

What was measured:
[1] = Solubility in water (stock solutions)
A549 [2] = experiment: BrdU proliferation assay, 3D hanging drop cell culture; type: cell-based, human; conditions: Homo sapiens, A549, 3D, BrdU, n = 2, read-out: Proliferation Assay IC50 ± SD
Experimental: (§1) MTS assay gives us information about the number of living cells, in this case, metabolically active cells, whereas the BrdU proliferation assay gives a measure of the cell population in active division phase. Both assays were performed in 2D and 3D assay formats. For the 2D cell assay format, we used classic two-dimensional in vitro assays and as a 3D assay we used a hanging drop proliferation cell assay as previously described. We explored the activity of compounds on three human lung cancer cell lines, A549, HCC827 and NCI-H358. The compound activity was also tested on human lung fibroblast cell line MRC-5. A two-dimensional in vitro viability assay was performed on the MRC-5 cell line to see if tested compounds are cytotoxic on normal cell lines in low concentrations. […] 7.1.
(§2) Test compounds were synthesized by a research group at the Department of Organic Chemistry, Faculty of Chemical Engineering and Technology, University of Zagreb. […] Compounds were diluted 1:3. We transferred 500 nL (for 2D cell culture) or 400 nL (for 3D cell culture) of the compound from a mother plate to test plate by using Mosquito (TTP labtech). DMSO percentage in test concentrations was 0.5–1.0%. Starting concentration of the test compounds and standard compound doxorubicin was 50 µM (2D cell culture) or 100 µM (3D cell culture).
(§3) Cells were grown in 96-well Perfecta 3D hanging drop plates 5000 cell/well for 4 days until spheres were formed (and checked under the microscope). After sphere formation cells were treated with compounds followed by 72 h incubation. Cell viability assay was performed according to the manufacturer’s instructions, using CellTiter GLO 3D for 3D cell culture (Promega); cell incubation was 5 min on the shaker followed by 25 min incubation in the dark. Plates were read using PE EnVision luminescence.
(§4) Proliferation assay was performed using Cell Proliferation ELISA, BrdU (Sigma, St. Louis, MO, USA). Briefly, 48 h hours after compound addition, 10 µM of BrdU was added to each well and incubated for the following 24 h. After incubation, a single cell suspension was made for 3D cell culture in the new 96-well plate. Plates were centrifuged and supernatants were removed from each plate (for 2D and 3D cell culture) followed by 60 min incubation at 60 °C. The rest of the proliferation assay was performed according to the manufacturer’s instructions.
(§5) Calculation of IC50 data, curves and QC analysis was performed by using Excel tools and GraphPadPrism software (La Jolla, CA, USA), v. […] QC criteria parameters (Z’, S:B, R2, HillSlope) were checked for every IC50 curve.

NCI-H358 [3] = experiment: as above; type: cell-based, human; conditions: Homo sapiens, NCI-H358, 3D, n = 2, read-out: Proliferation Assay IC50 ± SD
Experimental: as §1, §2, §3, §4, §5

HCC827 [4] = experiment: as above; type: cell-based, human; conditions: Homo sapiens, HCC827, 3D, BrdU, n = 2, read-out: Proliferation Assay IC50 ± SD
Experimental: as §1, §2, §3, §4, §5

E. coli ATCC 25922 = experiment: Broth microdilution testing (CLSI); type: cell-based, Escherichia coli; conditions: Escherichia coli, ATCC25922; broth microdilution, 16–24h at 37 °C; read-out: MIC E. coli ATCC 25922
Experimental: (§6) Broth microdilution testing was performed according to CLSI (Clinical Laboratory Standards Institute) guidelines. MIC (minimal inhibitory concentration) value was defined as the last tested concentration of compound at which there is no visible growth of bacteria. […] Clinical and Laboratory Standards Institute (CLSI) guidelines.

A549 [5] = experiment: BrdU proliferation assay, 2D cell culture; type: cell-based, human; conditions: Homo sapiens, A549, 2D, BrdU, n = 2, read-out: Proliferation Assay IC50 ± SD
Experimental: as §1, §2
(§7) Cells were grown in 96-well cell star polystyrene plates. We seeded 10,000 cells/well in wells 4 h prior to the treatment with different compounds concentrations and incubated for 72 h. A cell viability assay was performed according to the manufacturer’s instructions, using CellTiter 96 aqueous solution, MTS kit (Promega, Madison, WI, USA). After 0.5–2 h of cell incubation with MTS in 2D cell culture, the plates were read using PE EnVision absorbance at 490 nm.
as §4, §5

NCI-H358 [6] = experiment: BrdU proliferation assay, 2D cell culture; type: cell-based, human; conditions: Homo sapiens, NCI-H358, 2D, n = 2, read-out: Proliferation Assay IC50 ± SD
Experimental: as §1, §2, §7, §4, §5

HCC827 [7] = experiment: BrdU proliferation assay, 2D cell culture; type: cell-based, human; conditions: Homo sapiens, HCC827, 2D, BrdU, n = 2, read-out: Proliferation Assay IC50 ± SD
Experimental: as §1, §2, §7, §4, §5

poly(dAdT)2 = experiment: Thermal melting experiments; type: binding; conditions: r = 0.3, pH 7.0, sodium cacodylate buffer I = 0.05 mol dm^−3; error ±0.5 °C
Source text: (§8) The thermal stability of helices is usually affected by the non-covalent binding of small molecules to double-stranded nucleic acids. We determined the ΔTm value (the difference between the Tm value of free polynucleotide and a complex with a small molecule) for complexes of selected compounds with ctDNA and an alternating polynucleotide, poly(dAdT)2. […] Because of this, we determined ΔTm value with non-alternating AT-DNA, poly dA-poly dT as well.

poly dA-poly dT = experiment: Thermal melting experiments; type: binding; conditions: r = 0.3, pH 7.0, sodium cacodylate buffer I = 0.05 mol dm^−3; error ±0.5 °C
Source text: as §8

[8] = tested on: poly(dAdT)2 (DNA, polymer) AT; experiment: UV thermal melting at 260 nm; conditions: Na+ (sodium cacodylate, I = 0.05 M), pH 7.0, r = [compound]/[polynucleotide phosphate] = 0.3, error ±0.5, per base
S. aureus ATCC 29213 = experiment: Broth microdilution testing (CLSI); type: cell-based, Staphylococcus aureus; conditions: Staphylococcus aureus, ATCC29213, broth microdilution, 16–24h at 37 °C; read-out: MIC S. aureus ATCC 29213
Experimental: as §6

[9] = tested on: poly dA-poly dT (DNA, polymer) A/T; experiment: UV thermal melting at 260 nm; conditions: Na+ (sodium cacodylate, I = 0.05 M), pH 7.0, r = [compound]/[polynucleotide phosphate] = 0.3, error ±0.5, per base
A549 [10] = experiment: MTS cytotoxicity assay, 2D cell culture; conditions: read-out: Cytotoxicity Assay IC50 ± SD, A549 2D, 72 h, MTS, n = 2
Experimental: as §1, §2, §7, §5

NCI-H358 [11] = experiment: MTS cytotoxicity assay, 2D cell culture; conditions: Homo sapiens, NCI-H358, 72 h, read-out: Cytotoxicity Assay IC50 ± SD; NCI-H358 2D
Experimental: as §1, §2, §7, §5

HCC827 [12] = experiment: MTS cytotoxicity assay, 2D cell culture; conditions: Homo sapiens, HCC827, 72 h, read-out: Cytotoxicity Assay IC50 ± SD; HCC827 2D
Experimental: as §1, §2, §7, §5

[13] = MTS cytotoxicity assay, 2D cell culture, normal lung fibroblasts; conditions: human, MRC-5 normal lung fibroblasts, 2D culture
Experimental: as §1, §2, §7, §5

A549 [14] = experiment: Cytotoxicity (viability) assay, 3D hanging drop cell culture; conditions: Homo sapiens, A549, 72 h, read-out: Cytotoxicity Assay IC50 ± SD; A549 3D
Experimental: as §1, §2, §3, §5

NCI-H358 [15] = experiment: as above; conditions: Homo sapiens, NCI-H358, 72 h, read-out: Cytotoxicity Assay IC50 ± SD; NCI-H358 3D
Experimental: as §1, §2, §3, §5

HCC827 [16] = experiment: as above; conditions: Homo sapiens, HCC827, 72 h, read-out: Cytotoxicity Assay IC50 ± SD; HCC827 3D
Experimental: as §1, §2, §3, §5

ctDNA = experiment: Thermal melting experiments; type: binding, calf; conditions: r = [compound]/[polynucleotide] = 0.3, pH 7.0, sodium cacodylate buffer I = 0.05 mol dm^−3; error ±0.5 °C
Source text: as §8

S. cerevisiae ATCC 7752 = experiment: Broth microdilution testing (CLSI); type: cell-based, Saccharomyces cerevisiae; conditions: Saccharomyces cerevisiae, ATCC7752; broth microdilution, 16–24h at 37 °C; read-out: MIC S. cerevisiae ATCC 7752
Experimental: as §6

calf thymus DNA (ctDNA) = experiment: Fluorimetric titrations with ctDNA; conditions: fluorescence titrations, Scatchard equation, pH 7.0, sodium cacodylate buffer I = 0.05 mol dm-3
Experimental: The UV/vis spectra were recorded on a Varian Cary 100 Bio spectrophotometer, CD spectra on JASCO J815 spectrophotometer and fluorescence spectra on a Varian Cary Eclipse spectrophotometer.
Spectrophotometric titrations were performed at pH = 7 (I = 0.05 mol dm^−3, sodium cacodylate buffer) by adding portions of polynucleotide solution into the solution of the studied compound for fluorimetric experiments and CD experiments were performed by adding portions of the compound stock solution into the solution of a polynucleotide. In fluorimetric experiments excitation wavelengths of λexc = 350, 370 and 390 nm were used to avoid the inner filter effect caused due by increasing absorbance of the polynucleotide (Figures S3 and S4). Emission was collected in the range λem = 400–600 nm (SI).
aTitration data were processed using Scatchard equation, correlation coefficients were >0.97-
0.99 for all calculated Ks

[17] = tested on: poly(dAdT)2 (DNA, polymer) AT; experiment: CD titration; conditions: Na+ (sodium cacodylate, I = 0.05 M), pH 7.0, 25 °C, polynucleotide 3.0 × 10^-5 M

SMILES	solubility [1] [µM]	IC50 (A549 [2]) [µM]	IC50 (NCI-H358 [3]) [µM]	IC50 (HCC827 [4]) [µM]	MIC (E. coli ATCC 25922) [µM]	IC50 (A549 [5]) [µM]	IC50 (NCI-H358 [6]) [µM]	IC50 (HCC827 [7]) [µM]	ΔTm poly (dAdT)2 (poly(dAdT)2) [°C]	ΔTm Poly dA-poly dT (poly dA-poly dT) [°C]	ΔTm [8] [°C]	MIC (S. aureus ATCC 29213) [µM]	ΔTm [9] [°C]	IC50 (A549 [10]; Homo sapiens, A549, 72 h) [µM]	IC50 (NCI-H358 [11]) [µM]	IC50 (HCC827 [12]) [µM]	IC50 at 72 h [13] [µM]	IC50 (A549 [14]) [µM]	IC50 (NCI-H358 [15]) [µM]	IC50 (HCC827 [16]) [µM]	also measured
Cl.O=[N+]([O-])c1ccc(-c2ccc(-c3nc4ccc(C5=NCCN5)cc4s3)o2)cc1 [Compound 6, 6-(4,5-Dihydro-1H-imidazol-2-yl)-2-[5-(4-nitrophenyl)furan-2-yl]benzothiazole hydrochloride]	1720	5.52 ± 0.1	2.36 ± 1.17	7.63 ± 5	> 100	2.27 ± 0.13	1.1 ± 0.001	16.7 ± 9.39	3.6	5.6	3.6	> 100	5.6	2.12 ± 0.21	0.85 ± 0.05	5.13 ± 0.97	3.11 ± 0.26	4.01 ± 0.95	1.73 ± 0.01	7.02 ± 3.25	ΔTm ctDNA (ctDNA): 3.2 °C; MIC (S. cerevisiae ATCC 7752): 1.6 µM; melting point: 287 to 292 °C
CC(C)NC(=N)c1ccc2nc(-c3ccc(-c4ccc([N+](=O)[O-])cc4)o3)sc2c1											4.8		5.5								
CC(C)NC(=N)c1ccc2nc(-c3ccc(-c4ccc([N+](=O)[O-])cc4)o3)sc2c1 [Compound 5, 2-[5-(4-Nitrophenyl)furan-2-yl]-6-N-isopropilamidinobenzothiazole hydrochloride]	3000	65.9 ± 3.66	14.3 ± 0.84	14.7 ± 13.4	> 100	4.76 ± 1.03	3.56 ± 0.18	13.7 ± 3.13	4.8	5.5		50		8.76 ± 1.69	9.97 ± 0.59	19.3 ± 1.72	21.7 ± 0.51	26.4 ± 13.4	14.8 ± 0.57	43.6 ± 6.45	ΔTm ctDNA (ctDNA): 2.5 °C; MIC (S. cerevisiae ATCC 7752): 12.5 µM; Binding constants (logKs) with ctDNA (calf thymus DNA (ctDNA)): 6.4
CC(C)NC(=N)c1ccc2nc(-c3ccc(-c4ccc(Cl)cc4)o3)sc2c1 [Compound 8, 2-[5-(4-Chlorophenyl)furan-2-yl]-6-N-isopropilamidinobenzothiazole hydrochloride]	3000	19.9 ± 2.19	11.3 ± 0.49	17.8 ± 4.24	> 100	8.78 ± 3.62	6.68 ± 0.15	13.5 ± 0.81	3.6	4.3		12.5		6.75 ± 0.19	6.48 ± 0.11	6.26 ± 0.33	9.88 ± 2.38	9.31 ± 0.78	16 ± 9.38	20.5 ± 8.63	IC50 (A549 [10]): 6.74 ± 0.19 µM; ΔTm ctDNA (ctDNA): 1.7 °C; MIC (S. cerevisiae ATCC 7752): 6.25 µM; Binding constants (logKs) with ctDNA (calf thymus DNA (ctDNA)): 6.3
CC(C)NC(=N)c1ccc2nc(-c3ccc(-c4ccc(Cl)cc4)o3)sc2c1											3.6		4.3								binding [17]: yes
